System: Dark skinned Yucatan microswine
Assay: Induced pigmentation in vivo, topical treatment, Fontana-Mason stained skin sections scored for pigment deposition
Conditions: average of all sites of responsive swine; topical twice a day, five days/week, eight or nine weeks; positive controls 1% (W/V), pigments 1% or 5% (W/V), peptides 250 µM or 500µM, combinations with pigments at 1%(W/V)
Procedure: Compositions were tested for their ability to induce in vivo pigmentation in skin cells in the following experiment. Dark skinned Yucatan microswine (Charles River, Portland, ME) were housed in appropriately sized cages in an environmentally controlled room with a 12-hour light - 12-hour dark photoperiod and supplied with food and water ad libitum. Animal care was based on the "Guide for the Care and Use of Laboratory Animals", NIH Publication No. 85-23. Twenty µl of test peptides were applied topically, twice a day, five days/week, for eight or nine weeks, on the dorsum of the swine. Treatments of individual swine were always arranged in a head to tail order on one side, and in a tail to head order on the other side of the animal. Biopsies were taken using standard techniques.
F&M staining identifies silver nitrate reducing molecules. In skin, this non-specific stain identifies primarily melanin. At least three sections per biopsy were processed. Each experiment was repeated at least three times.
Swine were treated with either: the known skin darkening agent forskolin (Sigma) or with a Coleus forskoli extract (ATZ Naturals, Englewood Cliffs, NJ) which contains forskolin, as a positive control at 1% (W/V); pigments at 1% or 5% (W/V); peptides at 250 µM or 500µM; and combinations of such peptides at 250 µM or 500µM with pigments at 1%(W/V). […]

Molecule | Score
C=C[C@@]1(C)CC(=O)[C@]2(O)[C@@]3(C)[C@@H](O)CCC(C)(C)[C@@H]3[C@H](O)[C@H](OC(C)=O)[C@@]2(C)O1 [Forskolin] | 1
H2-Val-Gly-Val-Ala-Pro-Gly-NH2 (H-VGVAPG-NH2) [Peptide 1] | 1

Reference: patent publication EP1507508B1, “COMPOSITION CONTAINING A PEPTIDE AND A PIGMENT AND THE USE THEREOF IN DARKENING THE SKIN” (JOHNSON & JOHNSON CONSUMER COMPANIES, INC., priority 2002, dated 2003)
